{
  "source": "patent US11628172B2",
  "about": "“Methods of treating chronic lymphocytic leukemia using 2-(2,6-dioxopiperidin-3-yl)-4-((2-fluoro-4-((3-morpholinoazetidin-1-yl)methyl)benzyl)amino)isoindoline-1,3-dione” (Celgene Corporation, priority 2019, dated 2023)",
  "key": {"I83-E95 CLL cell line": {"tested_on": "I83-E95 CLL cell line", "experiment": "Cell proliferation and viability assay (384-well flow cytometry, Annexin V/DRAQ7), I83-E95", "assay_type": "cell-based", "conditions": "120 hours", "experimental": "(§1) The following are examples of cell-based assays that can be used to determine the anti-proliferative activity and apoptotic effect of compounds described herein using exemplary CLL cell lines (Table 3). The in vitro growth inhibitory activity of Compound 1 described herein was evaluated using a 384-well flow cytometry assay.\n(§2) The cell lines were plated under the conditions shown in Table 3 in 384-well flat bottom plates and incubated with increasing concentrations of compound ranging from 0.00015 to 10 μM or dimethyl sulfoxide (DMSO) control. The final concentration of DMSO was 0.1% (v/v). Following the addition of Compound 1 or DMSO and incubation for 120 hours, cell number and cell death were analyzed by flow cytometry (Attune®, Thermo Fisher) using Annexin V and the live-cell impermeant DNA dye, DRAQ7. […]\n(§3) Flow cytometry data analysis was then performed using the Flow Jo_v10 software to determine the number of viable cells (Annexin V and DRAQ7 double negative staining cells) and percentage of apoptotic cells (Annexin V positive cells) for each condition. […] The IC50 (50% inhibitory concentration) and Emax (maximum efficacy achieved) values were then calculated by performing nonlinear regression curve fitting using log (inhibitor) vs. normalized response—variable slope analysis on GraphPad Prism 7.03. […]"}, "[1]": {"tested_on": "primary CLL cells from patient-derived blood (CD5+CD19+ tumor cells)", "experiment": "Compound 1 in combination with obinutuzumab in B-cell CLL patient cells (ex vivo co-culture, flow cytometry, Caspase3)", "assay_type": "cell-based, human", "conditions": "single agent (Cpd1 DRC with DMSO, or obinutuzumab alone), 144 h, apoptosis (Caspase 3), DMSO baseline subtracted", "experimental": "Obinutuzumab (GA101) is a humanized, glycoengineered type 2 antibody targeted against CD20. […] The effect of treatment with Compound 1 in combination with obinutuzumab on the proliferation and survival of CLL B cells was assessed utilizing an ex vivo model where primary CLL cells from patient-derived blood were stimulated to proliferate with 10% fetal bovine serum (FBS), 5 ng/mL recombinant human interleukine-4 (rh IL-4), 10 ng/mL recombinant human interleukine-10 (rh IL-10) and co-cultured with fibroblast expressing surface CD154 (CD40L) in a 96 well plate format.\nPeripheral blood mononuclear cells (PBMCs) from CLL patients (Table 7) containing 52%-86% of CD5^+CD19^+ tumor cells were cultured at a density of 0.06-0.1×10^6 cells/well on a monolayer of CD154-expressing fibroblasts at a density of 0.09×10^6 cells/well in 96-well plates in RPMI 1640 medium supplemented with 10% FBS, 5 ng/mL rh IL-4 and 10 ng/mL rh IL-10. The cells were treated with vehicle control (0.1% DMSO) or increasing concentrations of Compound 1 ranging from 0.0001 to 1 μM and GA101 at concentrations ranging from 8 ng/mL to 5 ug/mL across all the different concentrations of Compound 1. After 144 h of treatment with both the agents, flow cytometric analysis was used to determine the number of tumor cells that were viable or apoptotic.\nThe tumor cell count was assessed by staining the patient PBMCs in each condition with tumor cell surface markers CD5 & CD19 along with Live/Dead fixable dye to exclude the dead cells and followed by intracellular staining for Caspase3 antibody to identify the apoptotic cells and was measured by flow cytometry (Attune NxT, Thermo Fisher). The live tumor cell count for each condition was calculated by normalizing to the precision count beads added to each sample.\nThe live tumor cell count was then normalized to the DMSO control (considered as 100% viable) to calculate the percentage of viable cells remaining after treatment. The normalized percentage of tumor cells was then represented as a heat map using Graph Pad Prism 8.0.0 to indicate the degree of tumor toxicity for each of the combinations (FIG. 1). Based on the data shown in FIG. 1, synergy/additivity calculations were performed using the HSA and Bliss Independence Model.\nFor apoptosis analysis, the percentage of apoptosis combining both “early” (Caspase 3 positive and Live-Dead fixable dye negative) and “late” apoptosis (Caspase 3 and Live-Dead fixable dye positive) cell gates subtracting the baseline DMSO value was graphed using GraphPad Prism 8.0.0.0. The Ymax (maximal percentage of apoptosis achieved) values from apoptosis curves were calculated by performing a nonlinear regression curve fitting using log(agonist) vs. normalized response—Variable slope analysis and identifying the maximum value on GraphPad Prism 8.0.0 (Table 8)."}, "Mec2 CLL cell line": {"tested_on": "Mec2 CLL cell line", "experiment": "Cell proliferation and viability assay (384-well flow cytometry, Annexin V/DRAQ7), Mec2", "assay_type": "cell-based", "conditions": "120 hours", "experimental": "as §1, §2, §3"}, "CI CLL cell line": {"tested_on": "CI CLL cell line", "experiment": "Cell proliferation and viability assay (384-well flow cytometry, Annexin V/DRAQ7), CI", "assay_type": "cell-based", "conditions": "120 hours", "experimental": "as §1, §2, §3"}, "WA-C3-CD5+ CLL cell line": {"tested_on": "WA-C3-CD5+ CLL cell line", "experiment": "Cell proliferation and viability assay (384-well flow cytometry, Annexin V/DRAQ7), WA-C3-CD5+", "assay_type": "cell-based", "conditions": "120 hours", "experimental": "as §1, §2, §3"}, "CII CLL cell line": {"tested_on": "CII CLL cell line", "experiment": "Cell proliferation and viability assay (384-well flow cytometry, Annexin V/DRAQ7), CII", "assay_type": "cell-based", "conditions": "120 hours", "experimental": "as §1, §2, §3"}, "HG3 CLL cell line": {"tested_on": "HG3 CLL cell line", "experiment": "Cell proliferation and viability assay (384-well flow cytometry, Annexin V/DRAQ7), HG3", "assay_type": "cell-based", "conditions": "120 hours", "experimental": "as §1, §2, §3"}, "EHEB CLL cell line": {"tested_on": "EHEB CLL cell line", "experiment": "Cell proliferation and viability assay (384-well flow cytometry, Annexin V/DRAQ7), EHEB", "assay_type": "cell-based", "conditions": "120 hours", "experimental": "as §1, §2, §3"}, "Mec1 CLL cell line": {"tested_on": "Mec1 CLL cell line", "experiment": "Cell proliferation and viability assay (384-well flow cytometry, Annexin V/DRAQ7), Mec1", "assay_type": "cell-based", "conditions": "120 hours", "experimental": "as §1, §2, §3"}, "WA-OSEL CLL cell line": {"tested_on": "WA-OSEL CLL cell line", "experiment": "Cell proliferation and viability assay (384-well flow cytometry, Annexin V/DRAQ7), WA-OSEL", "assay_type": "cell-based", "conditions": "120 hours", "experimental": "as §1, §2, §3"}},
  "data": [
    {"compound": "O=C1CC[C@H](N2C(=O)c3cccc(NCc4ccc(CN5CC(N6CCOCC6)C5)cc4F)c3C2=O)C(=O)N1", "note": "[Compound 1, (S)-2-(2,6-dioxopiperidin-3-yl)-4-((2-fluoro-4-((3-morpholinoazetidin-1-yl)methyl)benzyl)amino)isoindoline-1,3-dione]", "values": [
      {"measurement": "% Viable Cells Emax (percentage of tumor cells remaining)", "setting": "I83-E95 CLL cell line", "value": 21.6, "unit": "%"},
      {"measurement": "Ymax of Pt 11 (%)", "setting": "[1]; Pt 11", "value": 18.81, "unit": "%"},
      {"measurement": "Ymax of Pt 12 (%)", "setting": "[1]; Pt 12", "value": 19.11, "unit": "%"},
      {"measurement": "Ymax of Pt 13 (%)", "setting": "[1]; Pt 13", "value": 29.40, "unit": "%"},
      {"measurement": "Ymax of Pt 14 (%)", "setting": "[1]; Pt 14", "value": 24.11, "unit": "%"},
      {"measurement": "% Viable Cells Emax (percentage of tumor cells remaining)", "setting": "Mec2 CLL cell line", "value": 25.55, "unit": "%"},
      {"measurement": "% Viable Cells Emax (percentage of tumor cells remaining)", "setting": "CI CLL cell line", "value": 53.58, "unit": "%"},
      {"measurement": "% Viable Cells Emax (percentage of tumor cells remaining)", "setting": "WA-C3-CD5+ CLL cell line", "value": 44.2, "unit": "%"},
      {"measurement": "% Viable Cells Emax (percentage of tumor cells remaining)", "setting": "CII CLL cell line", "value": 78.23, "unit": "%"},
      {"measurement": "% Viable Cells Emax (percentage of tumor cells remaining)", "setting": "HG3 CLL cell line", "value": 59.58, "unit": "%"},
      {"measurement": "% Viable Cells Emax (percentage of tumor cells remaining)", "setting": "EHEB CLL cell line", "value": 28.68, "unit": "%"},
      {"measurement": "% Viable Cells Emax (percentage of tumor cells remaining)", "setting": "Mec1 CLL cell line", "value": 83.45, "unit": "%"},
      {"measurement": "% Viable Cells Emax (percentage of tumor cells remaining)", "setting": "WA-OSEL CLL cell line", "value": 54.42, "unit": "%"}
    ]}
  ]
}
